Test [1] has as its target T1, cloned recombinant human HDAC-1 (Homo sapiens, UniProt Q13547).
T1 construct: made in house; host or cells: Baculovirus insect cell expression system
Put plainly: Human HDAC-1 enzyme inhibition, Assay 1 ([3H]-acetylated histone substrate, scintillation counting). As to conditions: read-out: Human HDAC-1 IC50. It counts as biochemical. In a few lines: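 Recombinant human HDAC-1 from baculovirus-infected insect cells, preincubated with compound 30 min at 4° C. before reaction. Released [3H]-acetic acid extracted with ethyl acetate and counted by scintillation. IC50 taken from dose-response curves as concentration giving half-maximal inhibition.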

For another test, the system named is HCT116 cells. Put plainly: MTT assay. It counts as cell-based. The following applies: Homo sapiens, HCT-116, 72 h, HCT116 cells, 72 hours. In a few lines:
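Cells plated one day before dosing, then exposed to compound 72 h at 37 °C, 5% CO2. MTT at 0.5 mg/ml final for 4 h, solubilized in DMF/SDS buffer pH 4.7; OD converted to cell number from a standard growth curve.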

The subject of test [2] is acetylated histone H-4 in T24 human bladder cancer cells. The experiment in a line: Histone H4 acetylation in whole cells by immunoblots. The test is classed as cell-based. As to conditions: 16 h. In outline: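 T24 cells were treated with HDAC inhibitors for 16 h; […] total histone protein was resolved by SDS/PAGE and immunoblotted with polyclonal anti-acetylated H4 antibody. ECL detection, with signal quantified by densitometry.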

Where [3] appears, read: T-24, Table 5F, read-out: H4 Ac (T24) EC50.
The mark [4] stands for this setting: T-24, Table 5b, read-out: H4Ac (T24) EC50.

Molecules are shown by their SMILES. Like-named read-outs stand apart in the source and are kept apart here.

T1 sequence (Q13547 whole entry): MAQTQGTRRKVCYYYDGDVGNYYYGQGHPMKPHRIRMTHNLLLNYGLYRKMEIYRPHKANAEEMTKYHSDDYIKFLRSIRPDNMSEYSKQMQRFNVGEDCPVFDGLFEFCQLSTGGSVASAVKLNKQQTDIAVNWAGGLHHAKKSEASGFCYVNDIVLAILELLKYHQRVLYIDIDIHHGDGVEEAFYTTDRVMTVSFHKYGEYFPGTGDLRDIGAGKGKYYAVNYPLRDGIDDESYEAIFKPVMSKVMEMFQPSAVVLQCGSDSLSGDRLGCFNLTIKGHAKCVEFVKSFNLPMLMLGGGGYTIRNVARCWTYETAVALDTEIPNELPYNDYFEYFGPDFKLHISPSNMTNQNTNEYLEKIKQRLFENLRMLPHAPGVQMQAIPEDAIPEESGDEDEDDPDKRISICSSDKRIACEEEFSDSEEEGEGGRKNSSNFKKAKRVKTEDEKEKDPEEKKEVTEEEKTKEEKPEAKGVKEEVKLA

For the compound `COc1cc(NCc2ccc(-c3ccc(C(=O)Nc4ccccc4N)cc3)cc2)cc(OC)c1OC` [Cpd 189, N-(2-Amino-phenyl)-4-[4-{(3,4,5-trimethoxy-phenylamino)-methyl}-phenyl]-benzamide], the values for the IC50 (in test [1] (Table 5F); in the test on HCT116 cells (Table 5F)) were 3000 nM and 2000 nM, respectively. For the same compound, in test [2] (setting [3]), the EC50 was 5000 nM.
In the case of `COc1ccc(NCc2ccc(-c3ccc(C(=O)Nc4ccccc4N)cc3)cc2)cc1` [Cpd 190, N-(2-Amino-phenyl)-4-[4-{(4-methoxy-phenylamino)-methyl}-phenyl]-benzamide], the results for the IC50 (in test [1] (Table 5F); in the test on HCT116 cells (Table 5F)) were 3000 nM and 1000 nM, respectively. Moreover, the EC50 in test [2] (setting [3]) is more than 5000 nM.
For `COc1ccc(CNC2(C#Cc3ccc(C(=O)Nc4ccccc4N)cc3)CCCCC2)cc1` [Cpd 192], the IC50 in test [1] (Table 5F) stood at 2000 nM; with HCT116 cells (Table 5F), 1000 nM. Also, in test [2] (setting [3]), the EC50 is 3000 nM.
As for `Nc1nc(NC2Cc3ccccc3C2)nc(OCc2ccc(C(=O)Nc3ccccc3N)cc2)n1` [Cpd 207], the IC50 in test [1] (Table 5b) worked out at 400 nM; in the test on HCT116 cells (Table 5b) it was 600 nM. Besides, the EC50 in test [2] (setting [4]) turned out to be 2000 nM.
In the case of `Nc1ccccc1NC(=O)c1ccc(CNc2ncnc(NCCc3ccccc3)n2)cc1` [Cpd 210], the IC50 turned out to be 3000 nM in test [1] (Table 5b) and 900 nM with HCT116 cells (Table 5b). Moreover, in test [2] (setting [4]), the EC50 came out at 1000 nM.
As for `COc1nc(NCc2ccc(C(=O)Nc3ccccc3N)cc2)nc(OC)n1` [Cpd 212], the IC50 in test [1] (Table 5b) was determined as 3000 nM; with HCT116 cells (Table 5b), 1000 nM. Also, the EC50 in test [2] (setting [4]) came out at 1000 nM.
As to `COc1nc(NCc2ccc(C(=O)Nc3ccccc3N)cc2)nc(NC2Cc3ccccc3C2)n1` [Cpd 214], the IC50 amounted to 3000 nM in test [1] (Table 5b) and 900 nM in the test with HCT116 cells (Table 5b). Moreover, the EC50 in test [2] (setting [4]) was 1000 nM.
Consider `CN(Cc1ccc(C(=O)Nc2ccccc2N)cc1)c1nc(N)nc(NC2Cc3ccccc3C2)n1` [Cpd 216], for which the IC50 was 500 nM in test [1] (Table 5b) and 400 nM in the test on HCT116 cells (Table 5b). For the same compound, the EC50 in test [2] (setting [4]) came to 2000 nM.
Consider `Nc1ccccc1NC(=O)c1ccc(CNc2nc3ccc(OCCN4CCOCC4)cc3s2)cc1` [Cpd 228], for which the IC50 in test [1] (Table 5F) was found to be 3000 nM; in the test with HCT116 cells (Table 5F), 300 nM. The EC50 in test [2] (setting [3]) came to 1000 nM.
Turning to `COc1ccc2nc(NCc3ccc(C(=O)Nc4ccccc4N)cc3)sc2c1` [Cpd 233], the results for the IC50 (in test [1] (Table 5F); in the test with HCT116 cells (Table 5F)) were 900 nM and 300 nM, respectively. Moreover, the EC50 in test [2] (setting [3]) is 1000 nM.
For `COCCn1cnc2c(NCc3ccc(C(=O)Nc4ccccc4N)cc3)nc(Cl)nc21` [Cpd 243], in that order: 2000 nM, 800 nM and 1000 nM.
Regarding `Cc1onc2c1c(=O)n(Cc1ccc(C(=O)Nc3ccccc3N)cc1)c1cccc(Cl)c21` [Cpd 247], the values for the IC50 (in test [1] (Table 5F); in the test with HCT116 cells (Table 5F)) were 3000 nM and 600 nM, respectively. In test [2] (setting [3]), the EC50 worked out at 2000 nM.
As to `Nc1ccccc1NC(=O)c1ccc(-c2ncc[nH]2)cc1` [Cpd 249], the IC50 in test [1] (Table 5F) was 4000 nM; with HCT116 cells (Table 5F), 1000 nM. For the same compound, in test [2] (setting [3]), the EC50 is 2000 nM.
As to `Nc1ccccc1NC(=O)c1ccc(Cc2nc(CN3CCOCC3)cs2)cc1` [Cpd 252], the figures for the IC50 (in test [1] (Table 5F); in the test with HCT116 cells (Table 5F)) were 8000 nM and 1000 nM, respectively. In addition, the EC50 in test [2] (setting [3]) is 2000 nM.
With `CCn1c(=O)n(Cc2ccc(C(=O)Nc3ccccc3N)cc2)c(=O)c2sccc21` [Cpd 255], the IC50 in test [1] (Table 5F) is 2000 nM; in the test on HCT116 cells (Table 5F) it was 800 nM. Moreover, the EC50 in test [2] (setting [3]) turned out to be 1000 nM.
In the case of `Nc1ccccc1NC(=O)c1ccc(Cn2cnc3ccsc3c2=O)cc1` [Cpd 257], the IC50 (in test [1] (Table 5F); with HCT116 cells (Table 5F)) was 400 nM each time. For the same compound, in test [2] (setting [3]), the EC50 was 1000 nM.
For the compound `Nc1ccccc1NC(=O)c1ccc(CNc2nc(-c3ccc(Cl)cc3)cs2)cc1` [Cpd 321, N-(2-Amino-phenyl)-4-{[4-(4-chloro-phenyl)-thiazol-2-ylamino]-methyl}-benzamide], the IC50 turned out to be 500 nM in test [1] (Table 5F) and 300 nM with HCT116 cells (Table 5F). For the same compound, the EC50 in test [2] (setting [3]) amounted to 5000 nM.
As to `Nc1ccccc1NC(=O)c1ccc(CNc2nc3cc(Br)ccc3s2)cc1` [Cpd 322, N-(2-Amino-phenyl)-4-[(5-bromo-benzothiazol-2-ylamino)-methyl]-benzamide], the IC50 in test [1] (Table 5F) was determined as 700 nM; in the test on HCT116 cells (Table 5F), 400 nM. Further, the EC50 in test [2] (setting [3]) turned out to be 2000 nM.
Take `COc1cc(NCc2ccc(-c3ccc(C(=O)Nc4ccccc4N)cc3)s2)cc(OC)c1OC` [Cpd 323]: the IC50 in test [1] (Table 5F) came to 1000 nM; with HCT116 cells (Table 5F) it was 600 nM. In test [2] (setting [3]), the EC50 was found to be 1000 nM.
Consider `Nc1ccccc1NC(=O)c1ccc(CSc2nc3ccc(NCc4cccnc4)cc3s2)cc1` [Cpd 325, N-(2-Amino-phenyl)-4-{6-[(pyridin-3-ylmethyl)-amino]-benzothiazol-2-ylsulfanylmethyl}-benzamide], for which the figures for the IC50 (in test [1] (Table 5F); in the test with HCT116 cells (Table 5F)) were 300 nM and 1000 nM, respectively. For the same compound, the EC50 in test [2] (setting [3]) worked out at 2000 nM.
Turning to `Nc1ccccc1NC(=O)c1ccc(CSc2nc3ccc(NCc4ccccn4)cc3s2)cc1` [Cpd 326, N-(2-Amino-phenyl)-4-{6-[(pyridin-2-ylmethyl)-amino]-benzothiazol-2-ylsulfanylmethyl}-benzamide], the IC50 (in test [1] (Table 5F); in the test with HCT116 cells (Table 5F)) was 1000 nM throughout. Besides, the EC50 in test [2] (setting [3]) was 3000 nM.
As for `Nc1ccccc1NC(=O)c1ccc(CSc2ncc[nH]2)cc1` [Cpd 327, N-(2-Amino-phenyl)-4-(1H-imidazol-2-ylsulfanylmethyl)-benzamide], the IC50 was 2000 nM in test [1] (Table 5F) and 5000 nM with HCT116 cells (Table 5F). In test [2] (setting [3]), the EC50 was determined as 3000 nM.
In the same order, the values of `CCCCn1cnc2c(NCc3ccc(C(=O)Nc4ccccc4N)cc3)nc(N)nc21` [Cpd 330, 4-[(2-Amino-9-butyl-9H-purin-6-ylamino)-methyl]-N-(2-amino-phenyl)-benzamide] are 3000 nM, 2000 nM and 1000 nM.
In the same order, the values of `Nc1ccccc1NC(=O)c1ccc(CNc2nc(Cl)nc3[nH]cnc23)cc1` [Cpd 332, N-(2-Amino-phenyl)-4-[(2-chloro-9H-purin-6-ylamino)-methyl]-benzamide] are 400 nM, 1000 nM and 5000 nM.
Turning to `CCCCn1cnc2c(NCc3ccc(C(=O)Nc4ccccc4N)cc3)nc(Cl)nc21` [Cpd 333, N-(2-Amino-phenyl)-4-[(9-butyl-2-chloro-9H-purin-6-ylamino)-methyl]-benzamide], the IC50 in test [1] (Table 5F) was found to be 2000 nM; in the test with HCT116 cells (Table 5F) it was 100 nM. Besides, the EC50 in test [2] (setting [3]) amounted to 1000 nM.
On to `Nc1ccccc1NC(=O)c1ccc(NCc2nc3ccccc3[nH]2)cc1` [Cpd 334], for which the IC50 in test [1] (Table 5F) was determined as 8000 nM; in the test with HCT116 cells (Table 5F), 200 nM. Also, in test [2] (setting [3]), the EC50 is 1000 nM.
Consider `Nc1ccccc1NC(=O)c1ccc(Cn2cnc3ccc(Cl)cc3c2=O)cc1` [Cpd 336], for which the figures for the IC50 (in test [1] (Table 5F); in the test on HCT116 cells (Table 5F)) were 1000 nM and 400 nM, respectively. Moreover, the EC50 in test [2] (setting [3]) was less than 1000 nM.
For the compound `Cc1nc2ccccc2c(=O)n1Cc1ccc(C(=O)Nc2ccccc2N)cc1` [Cpd 337, N-(2-Amino-phenyl)-4-(2-methyl-4-oxo-4H-quinazolin-3-ylmethyl)-benzamide], the half-maximal inhibitory concentration (IC50) in test [1] (Table 5F) came out at 3000 nM; in the test with HCT116 cells (Table 5F), 600 nM. For the same compound, in test [2] (setting [3]), the EC50 was found to be 1000 nM.
In the same order, the values of `COc1cc2ncn(Cc3ccc(C(=O)Nc4ccccc4N)cc3)c(=O)c2cc1OC` [Cpd 338, N-(2-Amino-phenyl)-4-(6,7-dimethoxy-4-oxo-4H-quinazolin-3-ylmethyl)-benzamide] are 2000 nM, 500 nM and 3000 nM.
As to `CN(C)CCn1c(=O)n(Cc2ccc(C(=O)Nc3ccccc3N)cc2)c(=O)c2ccccc21` [Cpd 340, N-(2-Amino-phenyl)-4-[1-(2-dimethylamino-ethyl)-2,4-dioxo-1,4-dihydro-2H-quinazolin-3-ylmethyl]-benzamide], the IC50 in test [1] (Table 5F) is 2000 nM; in the test on HCT116 cells (Table 5F), 1000 nM. For the same compound, the EC50 in test [2] (setting [3]) amounted to 1000 nM.
Take `Nc1ccccc1NC(=O)c1ccc(Cn2c(=O)c3ccccc3n(CCN3CCOCC3)c2=O)cc1` [Cpd 341]: the IC50 in test [1] (Table 5F) is 4000 nM; with HCT116 cells (Table 5F) it was 1000 nM. In test [2] (setting [3]), the half-maximal effective concentration (EC50) came to 3000 nM.
For `Cc1nc2ccc(Br)cc2c(=O)n1Cc1ccc(C(=O)Nc2ccccc2N)cc1` [Cpd 342, N-(2-Amino-phenyl)-4-(6-bromo-2-methyl-4-oxo-4H-quinazolin-3-ylmethyl)-benzamide], in that order: 3000 nM, 400 nM and 1000 nM.
For the compound `Nc1ccccc1NC(=O)c1ccc(Cn2c(=O)[nH]c3ccsc3c2=O)cc1` [Cpd 343, N-(2-Amino-phenyl)-4-(2,4-dioxo-1,4-dihydro-2H-thieno[3,2-d]pyrimidin-3-ylmethyl)-benzamide], the figures for the IC50 (in test [1] (Table 5F); in the test on HCT116 cells (Table 5F)) were 500 nM and 300 nM, respectively. The EC50 in test [2] (setting [3]) was found to be 1000 nM.
For `CCn1c(=O)n(Cc2ccc(C(=O)Nc3ccccc3N)cc2)c(=O)c2cc(Br)ccc21` [Cpd 344, N-(2-Amino-phenyl)-4-(6-bromo-1-ethyl-2,4-dioxo-1,4-dihydro-2H-quinazolin-3-ylmethyl)-benzamide], in that order: 500 nM, 200 nM and 1000 nM.
In the case of `COc1ccc(Cn2c(=O)n(Cc3ccc(C(=O)Nc4ccccc4N)cc3)c(=O)c3ccccc32)cc1` [Cpd 345, N-(2-Amino-phenyl)-4-[1-(4-methoxy-benzyl)-2,4-dioxo-1,4-dihydro-2H-quinazolin-3-ylmethyl]-benzamide], the values for the IC50 (in test [1] (Table 5F); with HCT116 cells (Table 5F)) were 400 nM and 800 nM, respectively. In addition, the EC50 in test [2] (setting [3]) is 1000 nM.

For the origin of these results see patent US7868204B2, “Inhibitors of histone deacetylase” (MethylGene Inc., priority 2001, dated 2011).
